Data: patent US6787128B2, “Structure-improving hair care agents” (Henkel Kommanditgesellschaft auf Aktien, priority 2000, dated 2004)
Marks after values point to notes of the source that are not given here.

Experiments:
[1] = system: Human hair (Alkinco 6633); test: HP-DSC keratin melting point of permanent-waved hair after 1% aqueous active substance, Alkinco 6633; conditions: for Keratin melting point for Alkinco 6633: permanent-waved hair, treated 10 mins. with 1% aqueous solution of active substance, rinsed, dried
Description: (§1) HP-DSC (High-Pressure Differential Scanning Calorimetry)
Thermoanalytical investigations are particularly suitable for characterizing two-phase systems to which human hair fibers as fibrous keratins with their crystalline α-helix component and amorphous matrix component also belong. On the one hand, glass transitions and aging behavior of the amorphous matrix can be investigated, on the other hand the melting behavior of the crystalline helical phase provides important information. Thermoanalytical studies were described for the first time in 1899. The first differential thermoanalyses (DTA) of protein fibers were carried out towards the end of the fifties (F. Schwenker, J. H. Dusenbury, Text. Res. J. […], 30, pages 800 et seq; W. D. Felix, M. A. McDowall, H. Eyring, ibid. (1963), 33, pages 465 et seq). In the following years, various thermoanalytical measuring techniques, such as DTA, HP-DTA (high-pressure DTA) and DSC (differential scanning calorimetry) were applied to keratin fibers, for example to investigate the phenomenon of supercontraction, α-β-phase transitions of the helices or denaturing processes. Recently, the method of IIP-DSC was used to study keratin fibers, more particularly at the Deutsches Wollforschungsinstitut (German Wool Research Institute) in Aachen (F. J. Wortmann, H. Deutz, J. Appl. Polym. Sci. 1993, 48, pp. 137 et seq.). IIP-DSC rules out the problems associated with pyrolytic effects which occur in conventional DSC and the problems with data acquisition and interpretation by which DTA is attended. DSC measurements are carried out on keratins which are encapsulated with water in commercially obtainable pressure-tight measuring capsules. In the keratin/water system, a high water vapor pressure from which the HP-DSC analysis derives builds up in the encapsulated steel crucibles on heating to >100° C. The crucial difference between the HP-DSC thermograms of human hair fibers and normal DSC thermograms is that the endothermal peaks which reproduce the transition point and the transition enthalpy are shifted by ca. 90° C. to lower temperatures. This derives from the fact that, after diffusing into the hair fibers, the water reduces protein stability by weakening and splitting hydrogen bridge bonds and salt bonds so that the “gluing temperature” of the keratins is reduced. If only hydrogen bridges and salt bridges are dissolved by the supercontracting agent, such as water, the thermal effect is reversible (supercontraction). However, the process becomes irreversible when covalent bonds, such as disulfide bridges for example, are split. […]
(§2) Accordingly, both structural and chemical states and changes in fiber keratins and particularly in human hair fibers can be detected by dynamic differential scanning calorimetry (DSC). Under precisely defined test conditions, the processes detectable by calorimetry in human hair fibers can be recorded in the form of thermograms and used in regard to peak positions, structures and areas as an indicator for influencing order/disorder transitions through changes in inner and/or outer parameters produced, for example, by cosmetic treatment of the hair fibers. In other words, information on the strength of or damage to human hair fibers can be obtained from the endothermal peaks recorded in the thermogram of human hair fibers on the basis of peak position (transition point) and peak area (transition enthalpy). […]

[2] = system: Human hair (Alkinco 6634); test: HP-DSC keratin melting point of permanent-waved hair after 1% aqueous active substance, Alkinco 6634; conditions: treated 10 mins. with 1% aqueous solution of active substance, rinsed, dried
Description: as §1
(§3) Thermoanalytical investigations are particularly suitable for characterizing two-phase systems to which human hair fibers as fibrous keratins with their crystalline α-helix component and amorphous matrix component also belong. On the one hand, glass transitions and aging behavior of the amorphous matrix can be investigated, on the other hand the melting behavior of the crystalline helical phase provides important information. Thermoanalytical studies were described for the first time in 1899. The first differential thermoanalyses (DTA) of protein fibers were carried out towards the end of the fifties (F. Schwenker, J. H. Dusenbury, Text. Res. J. 1963, 30, pages 800 et seq; W. D. Felix, M. A. McDowall, H. Eyring, ibid. (1963), 33, pages 465 et seq). In the following years, various thermoanalytical measuring techniques, such as DTA, HP-DTA (high-pressure DTA) and DSC (differential scanning calorimetry) were applied to keratin fibers, for example to investigate the phenomenon of supercontraction, α-β-phase transitions of the helices or denaturing processes. Recently, the method of IIP-DSC was used to study keratin fibers, more particularly at the Deutsches Wollforschungsinstitut (German Wool Research Institute) in Aachen (F. J. Wortmann, H. Deutz, J. Appl. Polym. Sci. 1993, 48, pp. 137 et seq.). IIP-DSC rules out the problems associated with pyrolytic effects which occur in conventional DSC and the problems with data acquisition and interpretation by which DTA is attended. DSC measurements are carried out on keratins which are encapsulated with water in commercially obtainable pressure-tight measuring capsules. In the keratin/water system, a high water vapor pressure from which the HP-DSC analysis derives builds up in the encapsulated steel crucibles on heating to >100° C. […]
as §2

[3] = Fastness to washing of oxidation hair color, overall color difference DE* after 6 washes; parameters: species or system human; conditions: colored (Poly Diadem 718), 5 mins. rinse (Application Example 3.2) containing 2% active substance, washed 6x, smaller DE* = higher fastness
Experimental: Human hair fibers (Kerling Naturweiβ) were used. The hair fibers were intentionally damaged at their tips (2× blonding and 2× permanent waving) in order to simulate seriously damaged hair. […] After rinsing and drying, […] measurements (hair shafts and tips separated) were carried out and were repeated after 6 washes. […] The smaller DE* is, the smaller the loss of color by shampooing and the higher the fastness to washing.

[4] = system: Human hair (Alkinco 6634); test: HP-DSC keratin melting point after aftertreatment with conditioner (Application Example 3.1) containing pyridoxine in various concentrations
Description: as §1, §3, §2

| SMILES | increase in melting point ([1]; Alkinco 6633, 1% in water, versus permanent-waved reference sample, not statistically highly significant) [°C] | Keratin melting point for Alkinco 6633 [1] | Keratin melting point for Alkinco 6634 [2] [°C] | DE* for normal weathered shafts [3] | DE* for seriously damaged tips ([3]; tips damaged 2x blonding and 2x permanent waving) | Keratin melting point Alkinco 6634 ([4]; conditioner (Application Example 3.1) + 0.2% vitamin B6, 2 mins. aftertreatment of permanent-waved hair) [°C] | Keratin melting point Alkinco 6634 ([4]; conditioner (Application Example 3.1) + 0.5% vitamin B6, 2 mins. aftertreatment of permanent-waved hair) [°C] | Keratin melting point Alkinco 6634 ([4]; conditioner (Application Example 3.1) + 1.0% vitamin B6, 2 mins. aftertreatment of permanent-waved hair) [°C] | significance of (re)structuring effect by comparison with the reference sample ([4]; conditioner + 0.2% vitamin B6, Alkinco 6634) |
| --- | --- | --- | --- | --- | --- | --- | --- | --- | --- |
| Cc1ncc(CO)c(CO)c1O [Pyridoxine, pyridoxine] | 0.5 | 144* ° C. | 152.1 | 1.8 | 5.8 | 146.2 | 146.5 | 147.4 | satistically significant |
| Cc1ncc(CO)c(CN)c1O [Pyridoxamine, pyridoxamine] |  | 147.9 °C | 152.2 |  |  |  |  |  |  |
| Cc1ncc(CO)c(C=O)c1O [Pyridoxal, pyridoxal] |  | 147.7 °C | 152 |  |  |  |  |  |  |
| Cc1ncc(COP(=O)(O)O)c(C=O)c1O [Pyridoxal-5-phosphate, pyridoxal-5′-phosphate] |  | 148.3 °C | 152.7 |  |  |  |  |  |  |
